In EP3717657B1, “A SYSTEM FOR ASSESSING MICROBIAL SUSCEPTIBILITY TO ANTIBIOTIC AGENTS” (Ascilion AB, priority 2017, dated 2019):

Columns and labels:
[1] = tested on: Staphylococcus aureus (ATCC 29213); experiment: Antibiotic susceptibility by glucose consumption in culture medium, blood culture bottle inoculum (Example 1); assay type: cell-based; conditions: for Glucose concentration t=0: 0 minutes; for Glucose concentration t=60: 60 minutes; for Glucose concentration t=120: 120 minutes; for Glucose concentration t=180: 180 minutes; for Glucose concentration t=240: 240 minutes; for dC/dT: rate of change in glucose concentration;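 on dC/dT: rate calculated between the 60 and 180 min readings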
Experimental: (§1) Strains of Escherichia coli (ATCC 25922), Enterococcus faecalis (ATCC 29212) and Staphylococcus aureus (ATCC 29213) were inoculated in blood culture bottles (SVA, Uppsala, Sweden) and cultivated according to the manufacturer's instructions until positive.
(§2) Medium from each blood culture bottle was diluted 1:100 with cation adjusted Mueller-Hinton broth (SVA, Uppsala, Sweden) supplemented with glucose to a concentration of 1.0 mg/mL.
(§3) Table 1: Concentrations of antibiotic agents are given in µg/mL.
(§4) Glucose concentrations were measured at 0, 60, 120, 180, and 240 minutes using a WaveSense Jazz glucometer (AgaMatrix, Inc., Salem, NH, USA) with accompanying test strips.
(§5) Susceptibility scores corresponding to MIC values were calculated as described above. A 80% threshold was applied, i.e. the lowest concentration of antibiotic that entailed a rate of change in glucose concentration that was equal to or less than 80% of the reference was selected as the Minimal Inhibitory Concentration. The rate of change was calculated between the measurements at 60 and 180 minutes.

[2] = tested on: Escherichia coli (ATCC 25922); experiment: as above; assay type: cell-based; conditions: for Glucose concentration t=0: 0 minutes; for Glucose concentration t=60: 60 minutes; for Glucose concentration t=120: 120 minutes; for Glucose concentration t=180: 180 minutes; for dC/dT: rate of change in glucose concentration; for Glucose concentration t=240: 240 minutes;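 on dC/dT: rate calculated between the 60 and 180 min readings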
Experimental: as §1, §2, §3, §4, §5

Substance: Gentamicin
- MIC Measured ([1]; S.aureus, 80% threshold of rate of change vs reference, between 60 and 180 minutes, obtained in 4 hours): 0.25 µg/mL
- F=the rate of change in glucose concentration in relation to the reference ([1]; [Ab] 0,5 µg/mL): 57%
- Glucose concentration t=0 ([1]; [Ab] 0,5 µg/mL): 143
- Glucose concentration t=60 ([1]; [Ab] 0,5 µg/mL): 154
- Glucose concentration t=120 ([1]; [Ab] 0,5 µg/mL): 137
- Glucose concentration t=180 ([1]; [Ab] 0,5 µg/mL): 116
- Glucose concentration t=240 ([1]; [Ab] 0,5 µg/mL): 78
- dC/dT ([1]; [Ab] 0,5 µg/mL): 19
- F=the rate of change in glucose concentration in relation to the reference ([1]; [Ab] 0,25 µg/mL): 66%
- Glucose concentration t=0 ([1]; [Ab] 0,25 µg/mL): 143
- Glucose concentration t=60 ([1]; [Ab] 0,25 µg/mL): 146
- Glucose concentration t=120 ([1]; [Ab] 0,25 µg/mL): 140
- Glucose concentration t=180 ([1]; [Ab] 0,25 µg/mL): 102
- Glucose concentration t=240 ([1]; [Ab] 0,25 µg/mL): 55
- dC/dT ([1]; [Ab] 0,25 µg/mL): 22
- F=the rate of change in glucose concentration in relation to the reference ([1]; [Ab] 1 µg/mL): 30%
- Glucose concentration t=0 ([1]; [Ab] 1 µg/mL): 137
- Glucose concentration t=60 ([1]; [Ab] 1 µg/mL): 154
- Glucose concentration t=120 ([1]; [Ab] 1 µg/mL): 146
- Glucose concentration t=180 ([1]; [Ab] 1 µg/mL): 134
- Glucose concentration t=240 ([1]; [Ab] 1 µg/mL): 119
- dC/dT ([1]; [Ab] 1 µg/mL): 10
- F=the rate of change in glucose concentration in relation to the reference ([1]; [Ab] 2 µg/mL): 12%
- Glucose concentration t=0 ([1]; [Ab] 2 µg/mL): 144
- Glucose concentration t=60 ([1]; [Ab] 2 µg/mL): 154
- Glucose concentration t=180 ([1]; [Ab] 2 µg/mL): 146
- Glucose concentration t=240 ([1]; [Ab] 2 µg/mL): 148
- dC/dT ([1]; [Ab] 2 µg/mL): 4
- F=the rate of change in glucose concentration in relation to the reference ([1]; [Ab] 4 µg/mL): 10%
- Glucose concentration t=60 ([1]; [Ab] 4 µg/mL): 157
- Glucose concentration t=120 ([1]; [Ab] 4 µg/mL): 147
- Glucose concentration t=180 ([1]; [Ab] 4 µg/mL): 150
- Glucose concentration t=240 ([1]; [Ab] 4 µg/mL): 149
- dC/dT ([1]; [Ab] 4 µg/mL): 4
- F=the rate of change in glucose concentration in relation to the reference ([1]; [Ab] 8 µg/mL): 0%
- Glucose concentration t=0 ([1]; [Ab] 8 µg/mL): 142
- Glucose concentration t=60 ([1]; [Ab] 8 µg/mL): 154
- Glucose concentration t=120 ([1]; [Ab] 8 µg/mL): 150
- Glucose concentration t=180 ([1]; [Ab] 8 µg/mL): 154
- Glucose concentration t=240 ([1]; [Ab] 8 µg/mL): 140
- dC/dT ([1]; [Ab] 8 µg/mL): 0
- F=the rate of change in glucose concentration in relation to the reference ([1]; [Ab] 16 µg/mL): 0%
- Glucose concentration t=0 ([1]; [Ab] 16 µg/mL): 139
- Glucose concentration t=60 ([1]; [Ab] 16 µg/mL): 145
- Glucose concentration t=120 ([1]; [Ab] 16 µg/mL): 150
- Glucose concentration t=180 ([1]; [Ab] 16 µg/mL): 145
- Glucose concentration t=240 ([1]; [Ab] 16 µg/mL): 145
- dC/dT ([1]; [Ab] 16 µg/mL): 0
- F=the rate of change in glucose concentration in relation to the reference ([1]; [Ab] 32 µg/mL): 3%
- Glucose concentration t=0 ([1]; [Ab] 32 µg/mL): 144
- Glucose concentration t=60 ([1]; [Ab] 32 µg/mL): 148
- Glucose concentration t=120 ([1]; [Ab] 32 µg/mL): 145
- Glucose concentration t=180 ([1]; [Ab] 32 µg/mL): 146
- Glucose concentration t=240 ([1]; [Ab] 32 µg/mL): 145
- dC/dT ([1]; [Ab] 32 µg/mL): 1
- MIC Measured ([2]; E.coli, 80% threshold of rate of change vs reference, between 60 and 180 minutes, obtained in 4 hours): 1 µg/mL
- F=the rate of change in glucose concentration in relation to the reference ([2]; [Ab] 0,5 µg/mL): 121%
- Glucose concentration t=0 ([2]; [Ab] 0,5 µg/mL): 144
- Glucose concentration t=60 ([2]; [Ab] 0,5 µg/mL): 147
- Glucose concentration t=120 ([2]; [Ab] 0,5 µg/mL): 147
- Glucose concentration t=180 ([2]; [Ab] 0,5 µg/mL): 72
- dC/dT ([2]; [Ab] 0,5 µg/mL): 75
- F=the rate of change in glucose concentration in relation to the reference ([2]; [Ab] 0,25 µg/mL): 139%
- Glucose concentration t=0 ([2]; [Ab] 0,25 µg/mL): 149
- Glucose concentration t=60 ([2]; [Ab] 0,25 µg/mL): 152
- Glucose concentration t=120 ([2]; [Ab] 0,25 µg/mL): 144
- Glucose concentration t=180 ([2]; [Ab] 0,25 µg/mL): 58
- dC/dT ([2]; [Ab] 0,25 µg/mL): 86
- F=the rate of change in glucose concentration in relation to the reference ([2]; [Ab] 1 µg/mL): 77%
- Glucose concentration t=0 ([2]; [Ab] 1 µg/mL): 144
- Glucose concentration t=60 ([2]; [Ab] 1 µg/mL): 155
- Glucose concentration t=120 ([2]; [Ab] 1 µg/mL): 148
- Glucose concentration t=180 ([2]; [Ab] 1 µg/mL): 111
- Glucose concentration t=240 ([2]; [Ab] 1 µg/mL): 53
- dC/dT ([2]; [Ab] 1 µg/mL): 48
- F=the rate of change in glucose concentration in relation to the reference ([2]; [Ab] 2 µg/mL): 9%
- Glucose concentration t=60 ([2]; [Ab] 2 µg/mL): 161
- Glucose concentration t=120 ([2]; [Ab] 2 µg/mL): 151
- Glucose concentration t=180 ([2]; [Ab] 2 µg/mL): 143
- Glucose concentration t=240 ([2]; [Ab] 2 µg/mL): 140
- dC/dT ([2]; [Ab] 2 µg/mL): 6
- F=the rate of change in glucose concentration in relation to the reference ([2]; [Ab] 4 µg/mL): 7%
- Glucose concentration t=0 ([2]; [Ab] 4 µg/mL): 147
- Glucose concentration t=60 ([2]; [Ab] 4 µg/mL): 163
- Glucose concentration t=120 ([2]; [Ab] 4 µg/mL): 157
- Glucose concentration t=180 ([2]; [Ab] 4 µg/mL): 148
- Glucose concentration t=240 ([2]; [Ab] 4 µg/mL): 148
- dC/dT ([2]; [Ab] 4 µg/mL): 5
- F=the rate of change in glucose concentration in relation to the reference ([2]; [Ab] 8 µg/mL): 7%
- Glucose concentration t=0 ([2]; [Ab] 8 µg/mL): 144
- Glucose concentration t=60 ([2]; [Ab] 8 µg/mL): 156
- Glucose concentration t=120 ([2]; [Ab] 8 µg/mL): 153
- Glucose concentration t=180 ([2]; [Ab] 8 µg/mL): 150
- Glucose concentration t=240 ([2]; [Ab] 8 µg/mL): 144
- dC/dT ([2]; [Ab] 8 µg/mL): 5
- F=the rate of change in glucose concentration in relation to the reference ([2]; [Ab] 16 µg/mL): 1%
- Glucose concentration t=0 ([2]; [Ab] 16 µg/mL): 143
- Glucose concentration t=60 ([2]; [Ab] 16 µg/mL): 155
- Glucose concentration t=120 ([2]; [Ab] 16 µg/mL): 152
- Glucose concentration t=180 ([2]; [Ab] 16 µg/mL): 149
- Glucose concentration t=240 ([2]; [Ab] 16 µg/mL): 153
- dC/dT ([2]; [Ab] 16 µg/mL): 1
- F=the rate of change in glucose concentration in relation to the reference ([2]; [Ab] 32 µg/mL): 6%
- Glucose concentration t=0 ([2]; [Ab] 32 µg/mL): 148
- Glucose concentration t=60 ([2]; [Ab] 32 µg/mL): 158
- Glucose concentration t=120 ([2]; [Ab] 32 µg/mL): 155
- Glucose concentration t=180 ([2]; [Ab] 32 µg/mL): 150
- Glucose concentration t=240 ([2]; [Ab] 32 µg/mL): 147
- dC/dT ([2]; [Ab] 32 µg/mL): 4
